Measured values taken from patent US20230255954A1, “INTERLEUKIN 33 (IL-33) INHIBITION FOR TREATMENT OF CANCER, FIBROSIS AND INFLAMMATION” (The General Hospital Corporation, priority 2020, published 2023).

Key:
[1] = system: Caerulein-injected mouse pancreas; experiment: Caerulein chronic pancreatitis model with pitavastatin; type: in vivo
Protocol: Mice were weighed and injected with 50 μg/kg caerulein (BACHEM, Torrance, Calif., catalog no. 4030451) in 100 μL of PBS intraperitoneally every hour for 6 hours, three days per week for 3 weeks and mice were harvested.
1 mM of pitavastatin was dissolved in DMSO for stock, and then 100 uM was dissolved in PBS with caerulein for mice injection. Mice were injected with caerulein.
Tissue samples were collected and fixed in 4% paraformaldehyde (Millipore Sigma, catalog no. P6148) overnight at 4° C. Next, tissues were dehydrated in ethanol, processed and embedded in paraffin. 5 μm sections paraffin-embedded tissues were placed on slides, deparaffinized and stained with H&E or toluidine blue (for mast cell detection). For immunohistochemistry, antigen retrieval was performed in 500 μL of antigen unmasking solution (VECTOR Laboratories, Burlingame, Calif., catalog no. H3300) diluted in 50 mL water using Cuisinart pressure cooker for 20 min at high pressure. Slides were washed three times for three minutes each in 1×TBS with 0.025% Triton X-100. Sections were blocked with 1% bovine serum albumin (Thermo Fisher Scientific, catalog no. BP1600) and 5% goat serum (Millipore Sigma, catalog no. G9023) for 1 hour. Slides were stained overnight at 4° C. with a primary antibody diluted in TBS containing 1% BSA (Appendix Table S2). […]

[2] = system: mouse Il33 gene promoter (IL-33 promoter-luci reporter); experiment: IL-33 promoter luciferase screen of FDA-approved Drug Library; type: cell-based; details: 10 μM, 24 hours; IL-33 promoter-luci vs control-luci stable Pam212 cells; 1056 molecules tested
Protocol: Pam212 cells were grown at 37° C. in DMEM (Thermo Fisher Scientific, Waltham, Mass., catalog no. 11995065) supplemented with 10% fetal bovine serum (Thermo Fisher Scientific, catalog no. 26140079), 1× penicillin-streptomycin-glutamine (Thermo Fisher Scientific, catalog no. 10378016), 1×MEM non-essential amino acids solution (Thermo Fisher Scientific, catalog no. 11140050), 1×HEPES (Thermo Fisher Scientific, catalog no. 15630080) and 0.1% 2-Mercaptoethanol (Thermo Fisher Scientific, catalog no. 21985023). PyMT cell lines (derived from a primary breast tumor of MMTV-PyMrg mouse on a C57BL/6 background) were grown at 37° C. in RPMI Medium 1640 (Thermo Fisher Scientific, catalog no. 11875093) supplemented with 10% fetal bovine serum, 1× penicillin-streptomycin-glutamine and 0.1% 2-Mercaptoethanol. IL-33 promoter-luci vector (GeneCopoeia, Rockville, Md., catalog no. MPRM3494-PG02) or Control-luci vector (deletion form of IL-33 promoter region from IL-33 promoter-luci vector) or Poly (I:C) (Invivogen, San Diego, Calif., catalog no. tlrl-pic) in Pam212 cells were performed using Lipofectamine 2000 (Thermo Fisher Scientific, catalog no. 11668019) according to the manufacturer's instructions.
After transfection of plasmids in Pam212 cells, cells were incubated with 3 μg/ml of puromycin (Invivogen, San Diego, Calif., catalog no. ant-pr-1) for positive transfected cell selection. After following 2 days, medium was changed new puromycin contained medium for further selection. After following 2 days, cells were moved to new plate with puromycin contained medium. Puromycin selection was repeated for five times more.
1000 stable cells were seed to 384 wells (Corning, Glendale, Ariz., catalog no. 3570) and each of plate was incubated 24 hours. Following day, 10 μM of FDA-approved Drug Library compounds (Selleckchem, Houston, Tex., catalog no. L1300) were added to each well. After 24 hours, 5 μL of luciferase buffer from Pierce Gaussia luciferase glow assay kit (Thermo Fisher Scientific, Waltham, Mass., catalog no. 16160) were added each well and incubated for 5 min. Each plate was read and measured with luminescence by EnVision 2014 plate reader (Perkin Elmer, Waltham, Mass., catalog no. 2014 EnVision).
To make small molecule screening platform, we generated both IL-33 promoter-luci and control-luci over-expressed stable epithelial cell line (Pam212) by multiple puromycin selection strategy (FIG. 10A). To find molecules that can inhibit IL-33 expression, we tested 1056 FDA-approved small molecules against our reporter cell line. […] To find bona fide inhibitors of IL-33, we checked RNA level of Il33 by qPCR in cells treated with inducer of IL-33 expression, Poly (I:C). After cells were treated by Poly (I:C), RNA level of Il33 was increased compared to carrier group. However, Il33 RNA level was decreased by pitavastatin and tropisetron in Poly I:C-treated cells (FIGS. 10C and D). […] Finally, endogenous IL-33 protein level was decreased after treatment with pitavastatin in a dose-dependent manner (FIG. 10F). Therefore, pitavastatin is a small inhibitor molecule of IL-33.

O=C(O)C[C@H](O)C[C@H](O)/C=C/c1c(C2CC2)nc2ccccc2c1-c1ccc(F)cc1 [pitavastatin]
severity of pancreatitis ([1]; 100 uM pitavastatin in PBS injected with caerulein, vs severe pancreatitis in caerulein plus carrier): mild pancreatitis | inflammatory cell infiltrates in pancreas (H&E) ([1]; Caerulein-injected mouse pancreas with or without pitavastatin): reduction | IL-33/Control luminescence ratio (inhibitory effect against IL-33 reporter) [2]: small molecule candidates
